In patent publication US5973229A, “Gene encoding herbicide safener binding protein” (Board of Trustees Operating Michigan State University, priority 1997, dated 1999):

What was measured:
[1] = biological target: safener binding activity (SafBA) / SafBP; details: cited from earlier work; for IC50: maize SafBA, from Walton and Casida 1995, read-out: IC50 (inhibitor concentration that reduces specific [3H]Saf binding by 50%)
[2] = biological target: T1, SafBP (SBP1 expressed in E. coli) (Zea mays, UniProt O49010); experiment: [3H]Saf binding in extracts of E. coli expressing SBP1; set-up: species or system maize (Zea mays L.); details: for Total [3H]Saf binding: E. coli/SBP1 2-hr extract, 20.9 μg protein, [3H]R-29148 alone 67.3, average of duplicates
T1 construct: possible vector-derived N-terminal residues
T1 sequence (O49010 1-363): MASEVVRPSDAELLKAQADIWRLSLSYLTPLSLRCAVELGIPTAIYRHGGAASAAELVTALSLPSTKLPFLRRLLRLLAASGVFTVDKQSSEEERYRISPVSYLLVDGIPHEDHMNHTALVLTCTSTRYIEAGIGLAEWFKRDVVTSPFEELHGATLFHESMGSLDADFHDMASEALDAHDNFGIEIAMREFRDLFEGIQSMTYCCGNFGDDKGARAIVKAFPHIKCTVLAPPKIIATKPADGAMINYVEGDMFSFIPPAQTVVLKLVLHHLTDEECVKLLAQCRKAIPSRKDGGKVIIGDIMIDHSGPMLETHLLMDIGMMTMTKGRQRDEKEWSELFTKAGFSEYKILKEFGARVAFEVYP
Experimental: Binding Assay. Racemic R-29148 (Saf) and [^3 H]Saf (specific activity 15 Ci/mmol) were prepared according to Latli, B. et al., J. Labelled Cmpd Radiopharmn. 36:147-155 (1995). The sources of other chemicals are given in Walton, J. D. and Casida, J. E., Plant Physiol. 109:213-219 (1995). [^3 H]Saf binding was measured by incubating extracts with ca. 400,000 cpm of [^3 H]Saf in 50 mM Tris-HCl, pH 8, in a total volume of 1 mL for 60 min at 22° C. The extracts were then filtered through GF/A (Whatman) glass fiber filters that had been soaked in 0.3% polyethylenimine, the filters rinsed with water, and radioactivity retained on the filters measured by scintillation counting. Walton, J. D. and Casida, J. E., Plant Physiol. 109:213-219 (1995).
Expression of SafBP in E. coli. Vector pZL1 (Gibco-BRL) containing the SafBP cDNA clone was digested with EcoRI and NotI, the 1.5-kb insert cloned into the corresponding sites in the E. coli expression vector pET21c (Novagen, Madison, Wis.), and the resulting construct transformed into E. coli strain BL21(DE3) (Novagen). A 50-mL culture of this strain was grown at 37° C. to an OD600 of 0.5 at which point expression of the cDNA was induced with 1 mM isopropylthiogalactoside (IPTG). As a control, E. coli BL21(DE3) transformed with pET21c with no insert was grown in parallel. Samples (each 12.5 mL) were removed at 0, 1, 2, and 3 hr after induction, centrifuged, and extracted by the freeze-thaw method according to Novagen, and centrifuged again to remove cell debris. Each sample was in a final volume of 5 mL of 50 mM Tris-HCl, pH 8; 50 μL of this was used in the [^3 H]Saf binding assay according to Walton and Casida. Walton, J. D. and Casida, J. E., Plant Physiol. 109:213-219 (1995).
SBP1 was expressed in E. coil behind an IPTG-inducible promoter. Extracts of E. coil expressing SBP1 have strong SafBA whereas cells transformed with the empty expression vector have no binding (Table II). […] After growing to an OD600 of 0.5, cells were induced with IPTG and aliquots harvested at the indicated times after induction, lysed, and centrifuged to remove cell debris. Final volume of each extract was 5 mL. Control cells were transformed with the vector without insert. Values are the average of duplicates. Like [^3 H]Saf binding to the native maize protein, [^3 H]Saf binding in E. coli extracts is inhibited by dichlormid, EPTC, metolachlor, acetochlor, and alachlor (Table III). Table III provides inhibition of [^3 H]Saf binding by safeners and herbicides in extracts of E. coli expressing SBP1. The E.coli/SBP1 2-hr time point from […] was used; protein content per sample was 20.9 μg. Values are the average of duplicates.

[3] = competitor Concentration 1.1 (unit not given)

SMILES | IC50 [1] | SafBP binds herbicide [1] | Inhibition of R-29148 binding in extracts of E. coli cells expressing SBP1 [2] | Total [3H]Saf binding [2, 3] | also measured
CC1CN(C(=O)C(Cl)Cl)C(C)(C)O1 (racemic) [R-29148, (R,S)-3-dichloroacetyl-2,2,5-trimethyloxazolidine] | 120 nM |  |  |  | Kd ([1]; soluble, high affinity binding activity in extracts of etiolated maize seedlings, read-out: Kd of safener binding activity (SafBA) for [3H]Saf): 120 nM; Total [3H]Saf binding ([2]; competitor Concentration 2.5 (unit not given)): 3.0
CCCN(CCC)C(=O)SCC [EPTC, S-ethyl dipropylthiocarbamate] | 110 nM | binds | competitively inhibited |  | Total [3H]Saf binding ([2]; competitor Concentration 1.6 (unit not given)): 1.7
CCOCN(C(=O)CCl)c1c(C)cccc1CC [acetochlor] | 180 nM | binds | inhibited | 21.6 | 
CCc1cccc(CC)c1N(COC)C(=O)CCl [alachlor] | 70 nM | binds | competitively inhibited | 1.7 | 
CCSC(=O)N(CC(C)C)CC(C)C [butylate] |  | binds |  |  | 
CCSC(=O)N(CC)C1CCCCC1 [cycloate] |  | binds |  |  | 
C=CCN(CC=C)C(=O)C(Cl)Cl [dichlormid] | 10 nM |  | competitively inhibited |  | Total [3H]Saf binding ([2]; competitor Concentration 1.4 (unit not given)): 0.7
CCc1cccc(C)c1N(C(=O)CCl)C(C)COC (centres unmarked) [metolachlor] | 40 nM | binds | competitively inhibited | 3.3 | 
CC(C)N(C(=O)CCl)c1ccccc1 [propachlor] |  | binds |  |  | 
CC(C)N(C(=O)SCC(Cl)=C(Cl)Cl)C(C)C [triallate] |  | binds |  |  | 
